Test results published in patent US10239887B2, “Positive allosteric modulators of the muscarinic acetylcholine receptor M4” (Vanderbilt University, priority 2016, dated 2019).

Legend:
[1] = intrinsic clearance, cyno; type: in vitro ADME; conditions: cynomolgus monkey
Protocol: (§1) Compound 76 was in several in vitro assays to investigate both metabolism and pharmacokinetics. These assays were performed according to known methods as generally described in the following references: Conde-Ceide et al. ACS Med. Chem. Lett. 2015, 6, 716-720; Morris et al. J. Med. Chem. 2014, 57, 10192-10197; and Bubser et al. ACS Chem. Neurosci. 2014, 5, 920-942.

P450 1A2 = target: T1, P450 1A2 (Homo sapiens, UniProt P05177); test: P450 1A2 inhibition; type: in vitro ADME
T1 sequence (P05177 1-516): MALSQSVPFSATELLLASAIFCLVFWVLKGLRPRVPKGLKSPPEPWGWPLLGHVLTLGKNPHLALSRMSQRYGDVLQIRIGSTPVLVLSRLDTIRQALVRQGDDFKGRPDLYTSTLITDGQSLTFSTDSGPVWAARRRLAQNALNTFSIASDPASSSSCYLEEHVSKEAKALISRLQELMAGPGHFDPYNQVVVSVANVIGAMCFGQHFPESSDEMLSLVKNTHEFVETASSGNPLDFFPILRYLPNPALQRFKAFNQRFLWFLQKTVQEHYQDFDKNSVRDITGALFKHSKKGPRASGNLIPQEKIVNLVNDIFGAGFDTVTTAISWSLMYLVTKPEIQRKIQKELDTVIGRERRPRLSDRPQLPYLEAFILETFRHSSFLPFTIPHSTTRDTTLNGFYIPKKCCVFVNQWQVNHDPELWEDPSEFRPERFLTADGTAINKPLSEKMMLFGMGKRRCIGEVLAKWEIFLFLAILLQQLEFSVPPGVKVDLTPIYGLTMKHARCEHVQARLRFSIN
Protocol: as §1

in vivo DMPK, dog = conditions: 3 mg/kg
[2] = fraction unbound in plasma, cyno; type: in vitro ADME; conditions: cynomolgus monkey, read-out: Cyno Fu (plasma)
Protocol: as §1

human mAChR M4 = target: T2, human mAChR M4 (Homo sapiens, UniProt P08173); test: mAChR M4 cell-based functional assay (calcium flux), human M4; conditions: Human M4; % ACh maximum at 30 μM
T2 sequence (P08173 1-479): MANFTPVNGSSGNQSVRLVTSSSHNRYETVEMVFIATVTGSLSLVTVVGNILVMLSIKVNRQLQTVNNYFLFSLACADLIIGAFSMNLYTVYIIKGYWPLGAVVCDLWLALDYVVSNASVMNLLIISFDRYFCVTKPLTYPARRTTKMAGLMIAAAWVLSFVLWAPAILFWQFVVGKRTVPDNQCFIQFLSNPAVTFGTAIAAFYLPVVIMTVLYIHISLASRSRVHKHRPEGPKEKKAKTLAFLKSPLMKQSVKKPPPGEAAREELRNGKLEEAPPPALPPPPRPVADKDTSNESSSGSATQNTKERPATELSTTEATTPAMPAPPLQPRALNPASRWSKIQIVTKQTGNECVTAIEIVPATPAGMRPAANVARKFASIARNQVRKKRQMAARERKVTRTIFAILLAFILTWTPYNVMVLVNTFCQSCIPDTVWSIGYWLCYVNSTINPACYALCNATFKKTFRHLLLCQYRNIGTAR

in vivo [3] = conditions: rat
in vivo [4] = conditions: dog, plasma
in vivo DMPK, rat = conditions: 3 mg/kg
P450 2C9 = P450 2C9 (Homo sapiens, UniProt P11712); test: P450 2C9 inhibition; type: in vitro ADME
Protocol: as §1

bacterial = bacterial cytotoxicity assay; type: cell-based; conditions: 0.6-100 μM
in vivo [5] = conditions: cynomolgus monkey
rat mAChR M4 = target: T3, rat mAChR M4 (Rattus norvegicus, UniProt P08485); test: mAChR M4 cell-based functional assay (calcium flux), rat M4; design: Emax: dose or concentration left out as unconfirmed
T3 sequence (P08485 1-478): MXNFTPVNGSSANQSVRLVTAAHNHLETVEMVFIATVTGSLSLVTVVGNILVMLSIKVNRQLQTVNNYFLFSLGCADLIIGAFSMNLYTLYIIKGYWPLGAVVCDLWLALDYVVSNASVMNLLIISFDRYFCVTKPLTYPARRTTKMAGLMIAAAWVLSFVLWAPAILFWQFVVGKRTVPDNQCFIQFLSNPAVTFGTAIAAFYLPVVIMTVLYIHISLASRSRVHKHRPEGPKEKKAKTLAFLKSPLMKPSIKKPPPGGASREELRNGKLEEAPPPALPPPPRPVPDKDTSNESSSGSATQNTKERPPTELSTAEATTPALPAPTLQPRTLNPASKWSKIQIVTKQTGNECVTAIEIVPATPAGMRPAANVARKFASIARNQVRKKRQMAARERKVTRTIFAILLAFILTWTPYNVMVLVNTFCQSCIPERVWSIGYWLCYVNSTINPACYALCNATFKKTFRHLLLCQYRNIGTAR

Chain of P450 2C9 (P11712 whole entry): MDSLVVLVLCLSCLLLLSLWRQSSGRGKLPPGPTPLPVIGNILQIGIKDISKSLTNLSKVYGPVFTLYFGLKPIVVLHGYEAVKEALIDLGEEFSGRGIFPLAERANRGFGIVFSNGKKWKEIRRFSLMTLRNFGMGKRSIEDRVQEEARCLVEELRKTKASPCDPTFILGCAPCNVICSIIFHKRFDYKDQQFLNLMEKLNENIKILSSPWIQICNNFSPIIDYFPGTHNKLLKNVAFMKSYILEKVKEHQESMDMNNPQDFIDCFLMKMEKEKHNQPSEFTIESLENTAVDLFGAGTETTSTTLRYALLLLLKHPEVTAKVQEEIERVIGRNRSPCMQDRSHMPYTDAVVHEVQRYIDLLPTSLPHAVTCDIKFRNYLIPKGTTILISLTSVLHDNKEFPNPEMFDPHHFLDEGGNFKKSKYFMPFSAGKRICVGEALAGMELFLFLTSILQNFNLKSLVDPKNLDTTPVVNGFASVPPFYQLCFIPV

For Cc1nnc2sc3c(NCc4ccc(C(C)(C)O)cc4)ncnc3c2c1C [Compound 76, 2-[4-[[(3,4-Dimethylpyrimido[4′,5′:4,5]thieno[2,3-c]pyridazin-8-yl)amino]methyl]phenyl]propan-2-ol], the CLint scaled [1] was 102 mL/min/kg, the IC50 (P450 1A2) was over 30 µM and the “Cyno oral F” value (in vivo DMPK, cyno; 3 mg/kg) was 44%. The “Cyno CSF: plasma Kp” value (in vivo DMPK, cyno; cynomolgus monkey, in vivo) was 0.01, the “Cyno CSF: plasma Kp, u” value (in vivo DMPK, cyno; cynomolgus monkey, in vivo) was 1.1 and the “Dog oral F” value (in vivo DMPK, dog) was 54%. The fraction unbound [2] was 0.009, the Emax (human mAChR M4) was 86% and the Kp (in vivo [3]; brain) was 0.31. The Vd (in vivo [3]; plasma) was 1 L/kg, the clearance (in vivo [3]; plasma) was 4.4 mL/min/kg and the half-life (in vivo [3]; plasma) was 3 h. The Vd (in vivo [4]) was 1.4 L/kg, the clearance (in vivo [4]) was 4.7 mL/min/kg and the half-life (in vivo [4]) was 4.2 h. The “Rat oral F” value (in vivo DMPK, rat) was over 100%, the IC50 (P450 2C9) was 16 µM and the bacterial cytotoxicity result (bacterial) was “clean”. The Kp (in vivo [5]; brain) was 0.37, the Kp uu (in vivo [5]; brain) was 0.62 and the Vd (in vivo [5]; plasma) was 0.9 L/kg. For the same compound, the clearance (in vivo [5]; plasma) was 5.3 mL/min/kg, the half-life (in vivo [5]; plasma) was 4.5 h and the Emax (rat mAChR M4) was 77%.
